Measurements published in patent US12630563B2, “Macrocyclic RIP2-kinase inhibitors” (Oncodesign S.A., priority 2020, dated 2026).

Molecular target: T1, recombinant hRIPK2 protein (kinase domain aa 1-299-His-tagged) (Homo sapiens, UniProt O43353)
T1 construct: kinase domain aa 1-299-His-tagged; purchased Life Technologies PR7829A
Test: RIPK2 AlphaLISA assay (displacement of bead-bound CZC-8004 from hRIPK2)
Assay type: binding
Details: recombinant hRIPK2 kinase domain 10 nM, 2 h at 23° C.
Text: RIPK2 AlphaLISA® Assay (Amplified Luminescent Proximity Homogeneous Assay)
A non-specific kinase inhibitor (CZC-8004 Cayman #916603-07-1) bound to an acceptor bead (#6772001 PerkinElmer) was mixed to the recombinant hRIPK2 protein (kinase domain aa 1-299-His-tagged—Life Technologies PR7829A) and a Ni2+-tagged donor beads (#AS101D PerkinElmer). In the presence of an inhibitor, the compound beads displacement from hRIPK2 was followed by signal loss. In a 384-well ProxiPlate@ (Perkin Elmer, 6008280) add:
2 μL RIPK2 inhibitor (in DMSO 0.8%).
2 μL human recombinant RIPK2 (10 nM diluted in AlphaLISA buffer 1×).
4 μL Mix of […] 1/1000 in AlphaLISA buffer 1×.
Homogenize using a microtiter plate shaker and incubate for 2 h at 23° C.
Read using EnVision®-Alpha Reader (PerkinElmer) according to manufacturer specifications.

T1 sequence (O43353 1-299): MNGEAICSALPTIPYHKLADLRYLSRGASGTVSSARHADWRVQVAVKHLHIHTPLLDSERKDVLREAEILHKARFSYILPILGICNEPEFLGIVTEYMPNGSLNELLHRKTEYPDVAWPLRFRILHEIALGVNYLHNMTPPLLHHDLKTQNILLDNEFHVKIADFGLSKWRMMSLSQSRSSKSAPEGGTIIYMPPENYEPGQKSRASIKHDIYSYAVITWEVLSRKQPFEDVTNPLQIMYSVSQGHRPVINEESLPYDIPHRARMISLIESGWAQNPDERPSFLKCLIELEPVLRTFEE

Compound | IC50
CCOc1cc2cc(c1)-c1cnn3ccc(nc13)OC[C@@H]1C[C@@H](OCCOC)C(=O)N1CCN2 (racemic) [Example 112, (12R,14S)-4-ethoxy-12-(2-methoxyethoxy)-16-oxa-7,10,20,21,24-pentaazapentacyclo[15.5.2.1^2,6.0^10,^14.0^20,^23]pentacosa-1(23),2(25),3,5,17(24),18,21-heptaen-11-one] | < 10 nM
COCCO[C@@H]1C[C@H]2COc3ccn4ncc(c4n3)-c3cc(C#N)cc(c3)NCCN2C1=O (racemic) [Example 114, (12R,14S)-12-(2-methoxyethoxy)-11-oxo-16-oxa-7,10,20,21,24-pentaazapentacyclo[15.5.2.1^2,6.0^10,^14.0^20,^23]pentacosa-1(23),2,4,6(25),17(24),18,21-heptaene-4-carbonitrile] | < 10 nM
COCCO[C@@H]1C[C@H]2COc3nc4c(cnn4cc3OC)-c3cc(cc(OC)c3)NCCN2C1=O (racemic) [Example 117, (12R,14S)-4,18-dimethoxy-12-(2-methoxyethoxy)-16-oxa-7,10,20,21,24-pentaazapentacyclo[15.5.2.1^2,6.0^10,^14.0^20,^23]pentacosa-1(23),2,4,6(25),17(24),18,21-heptaen-11-one] | < 10 nM
CO[C@@H]1C[C@H]2C(C)Oc3ccn4ncc(c4n3)-c3cc(F)cc(c3)NCCN2C1=O (relative stereo) [Example 103, E1-(12R,14S,15R*)-4-fluoro-12-methoxy-15-methyl-16-oxa-7,10,20,21,24-pentaazapentacyclo[15.5.2.1^2,6.0^10,^14.0^20,^23]pentacosa-1(23),2,4,6(25),17(24),18,21-heptaen-11-one] | 10 to 100 nM
COCc1cc2cc(c1)-c1cnn3cc(C)c(nc13)OC[C@@H]1CC(OC)C(=O)N1CCN2 (single isomer, unassigned) [Example 65, (12R or S,14S)-12-methoxy-4-(methoxymethyl)-18-methyl-16-oxa-7,10,20,21,24-pentaazapenta cyclo[15.5.2.1^2,6.0^10,14.0^20,23]pentacosa-1(23),2,4,6(25),17(24), 18,21-heptaen-11-one] | < 10 nM
COCc1cc2cc(c1)-c1cnn3cc(C)c(nc13)OC[C@@H]1CC(OC)C(=O)N1CCN2 (single isomer, unassigned) [Example 66, (12R or S,14S)-12-methoxy-4-(methoxymethyl)-18-methyl-16-oxa-7,10,20,21,24-pentaazapenta cyclo[15.5.2.1^2,6.0^10,14.0^20,23]pentacosa-1(23),2,4,6(25),17(24), 18,21-heptaen-11-one] | < 10 nM
CO[C@@H]1CC2(C)COc3ccn4ncc(c4n3)-c3cc(F)cc(c3)NCCN2C1=O (single isomer, unassigned) [Example 86] | < 10 nM
COc1cc2cc(c1)-c1cnn3ccc(nc13)OC[C@@H]1C[C@@H](OC)C(=O)N1CC(C)N2 (single isomer, unassigned) [Example 105, (8R*,12R,14S)-4,12-dimethoxy-8-methyl-16-oxa-7,10,20,21,24-pentaazapentacyclo[15.5.2.1^2,6.0^1°,^14.0^2°,^23]pentacosa-1(23),2,4,6(25),17(24),18,21-heptaen-11-one] | < 10 nM
CCOc1cc2cc(c1)-c1cnn3ccc(nc13)OC[C@@H]1C[C@@H](OC)C(=O)N1CCN2 [Example 7, (12R,14S)-4-ethoxy-12-methoxy-16-oxa-7,10,20,21,24-pentaazapentacyclo[15.5.2.1^2,6.0^10,^14.0^20,^23]pentacosa-1(23),2(25),3,5,17(24),18,21-heptaen-11-one] | < 10 nM
O=C1[C@H](OC2CCC2)C[C@H]2COc3ccn4ncc(c4n3)-c3cc(F)cc(c3)NCCN12 [Example 10, (12R,14S)-12-cyclobutoxy-4-fluoro-16-oxa-7,10,20,21,24-pentaazapentacyclo[15.5.2.1^2,6.0^10,^14.0^20,^23]pentacosa-1(23),2,4,6(25),17(24),18,21-heptaen-11-one] | < 10 nM

Next, values leading:

IC50 | Compound
< 10 nM | [2H]C([2H])([2H])Oc1cc2cc(c1)-c1cnn3ccc(nc13)OC[C@@H]1C[C@@H](OCCOC)C(=O)N1CCN2 (racemic) [Example 95, (12R,14S)-4-(^2H3)methoxy-12-(2-methoxyethoxy)-16-oxa-7,10,20,21,24-pentaazapentacyclo[15.5.2.1^2,6.0^10,^14.0^20,^23]pentacosa-1(23),2(25),3,5,17(24),18,21-heptaen-11-one]
< 10 nM | COCCO[C@@H]1C[C@H]2COc3ccn4ncc(c4n3)-c3cc(cc(OC(F)F)c3)NCCN2C1=O (racemic) [Example 111, (12R,14S)-4-(difluoromethoxy)-12-(2-methoxyethoxy)-16-oxa-7,10,20,21,24-pentaazapentacyclo[15.5.2.1^2,6.0^10,^14.0^20,^23]pentacosa-1(23),2(25),3,5,17(24),18,21-heptaen-11-one]
10 to 100 nM | COCCO[C@@H]1C[C@H]2COc3ccn4ncc(c4n3)-c3cc(cc(OC(C)C)c3)NCCN2C1=O (racemic) [Example 113, (12R,14S)-12-(2-methoxyethoxy)-4-(propan-2-yloxy)-16-oxa-7,10,20,21,24-pentaazapentacyclo[15.5.2.1^2,6.0^10,^14.0^20,^23]pentacosa-1(23),2(25),3,5,17(24),18,21-heptaen-11-one]
< 10 nM | COCCO[C@@H]1C[C@H]2COc3ccn4ncc(c4n3)-c3cc(Cl)cc(c3)NCCN2C1=O (racemic) [Example 116, (12R,14S)-4-chloro-12-(2-methoxyethoxy)-16-oxa-7,10,20,21,24-pentaazapentacyclo[15.5.2.1^2,6.0^10,^14.0^20,^23]pentacosa-1(23),2,4,6(25),17(24),18,21-heptaen-11-one]
< 10 nM | C#Cc1cc2cc(c1)-c1cnn3ccc(nc13)OC[C@@H]1C[C@@H](OCCOC)C(=O)N1CCN2 (racemic) [Example 118, (12R,14S)-4-ethynyl-12-(2-methoxyethoxy)-16-oxa-7,10,20,21,24-pentaazapentacyclo[15.5.2.1^2,6.0^10,^14.0^20,^23]pentacosa-1(23),2(25),3,5,17(24),18,21-heptaen-11-one]
< 10 nM | COCC1C[C@H]2COc3ccn4ncc(c4n3)-c3cc(F)cc(c3)NCCN2C1=O (single isomer, unassigned) [Example 31]
< 10 nM | COCC1C[C@H]2COc3ccn4ncc(c4n3)-c3cc(F)cc(c3)NCCN2C1=O (single isomer, unassigned) [Example 32]
100 to 11000 nM | CO[C@@H]1CC2(C)COc3ccn4ncc(c4n3)-c3cc(F)cc(c3)NCCN2C1=O (single isomer, unassigned) [Example 85]
10 to 100 nM | COc1cc2cc(c1)-c1cnn3ccc(nc13)OC[C@@H]1C[C@@H](OC)C(=O)N1CC(C)N2 (single isomer, unassigned) [Example 106, (8R*,12R,14S)-4,12-dimethoxy-8-methyl-16-oxa-7,10,20,21,24-pentaazapentacyclo[15.5.2.1^2,6.0^1°,^14.0^2°,^23]pentacosa-1(23),2,4,6(25),17(24),18,21-heptaen-11-one]
< 10 nM | COc1cn2ncc3c2nc1OC[C@@H]1C[C@@H](OC)C(=O)N1CCNc1cc-3cc(C(F)(F)F)c1 [Example 2, (12R,14S)-12,18-dimethoxy-4-(trifluoromethyl)-16-oxa-7,10,20,21,24-pentaazapentacyclo[15.5.2.1^2,6.0^10,^14.0^20,^23]pentacosa-1(23),2(25),3,5,17(24),18,21-heptaen-11-one]
< 10 nM | CO[C@@H]1C[C@H]2COc3ccn4ncc(c4n3)-c3cc(Cl)cc(c3)NCCN2C1=O [Example 4, (12R,14S)-4-chloro-12-methoxy-16-oxa-7,10,20,21,24-pentaazapentacyclo[15.5.2.1^2,6.0^10,^14.0^20,^23]pentacosa-1(23),2(25),3,5,17(24),18,21-heptaen-11-one]
< 10 nM | COc1cc2cc(c1)-c1cnn3ccc(nc13)OC[C@@H]1C[C@@H](OC)C(=O)N1CCN2 [Example 5, (12R,14S)-4,12-d i methoxy-16-oxa-7,10,20,21,24-pentaazapentacyclo[15.5.2.1^2,6.0^10,^14.0^20,^23]pentacosa-1(23),2(25),3,5,17(24),18,21-heptaen-11-one]
< 10 nM | CCO[C@@H]1C[C@H]2COc3ccn4ncc(c4n3)-c3cc(cc(OC)c3)NCCN2C1=O [Example 6, (12R,14S)-12-ethoxy-4-methoxy-16-oxa-7,10,20,21,24-pentaazapentacyclo[15.5.2.1^2,6.0^10,^14.0^20,^23]pentacosa-1(23),2,4,6(25),17(24),18,21-heptaen-11-one]
< 10 nM | CO[C@@H]1C[C@H]2COc3ccn4ncc(c4n3)-c3cc(cc(OC(C)C)c3)NCCN2C1=O [Example 8, (12R,14S)-12-methoxy-4-(propan-2-yloxy)-16-oxa-7,10,20,21,24-pentaazapentacyclo[15.5.2.1^2,6.0^10,^14.0^20,^23]pentacosa-1(23),2,4,6(25),17(24),18,21-heptaen-11-one]
< 10 nM | CC(C)O[C@@H]1C[C@H]2COc3ccn4ncc(c4n3)-c3cc(F)cc(c3)NCCN2C1=O [Example 9, (12R,14S)-4-fluoro-12-(propan-2-yloxy)-16-oxa-7,10,20,21,24-pentaazapentacyclo[15.5.2.1^2,6.0^10,^14.0^20,^23]pentacosa-1(23),2,4,6(25),17(24),18,21-heptaen-11-one]
